Where two headings read alike, the source gives them in different places. Values belong to the molecule of their own block, whether it stands above or below them.
Tests used:
[1] = system: A431 tumor; experiment: Biodistribution in tumor (A431) bearing rats; assay type: in vivo, rat; details: for tumor/blood ratios: data not shown; for course of tumor uptake with time / tumor uptake: tumor (A431) bearing rats
Protocol: WAG rnu/rnu male rats (300–400 grams) were injected s.c. in the left or right hind limb, or in the neck, with A431 cells (1×10^7 in 200 μl sterile PBS). Tumor growth was monitored every 2–3 days by calipers. One to two weeks after inoculation, the rats were ready to be used in the following in-vivo biodistribution, metabolic and PET studies. Tumor mass ranging between 2 and 3 grams were used in these experiments. Biodistribution: […] Animals were sacrificed at specific time points (between 0 and 1 hour) by means of CO2 asphyxiation. Blood and certain organs and tissues including tumors were collected or excised, counted in a gamma-counter and weighed. % ID/organ, % ID/gram of tissue and tissue/blood uptake ratios were calculated.

[2] = Biological stability (metabolism) in blood, liver and tumor of rats; assay type: in vivo, rat
Protocol: WAG rnu/rnu male rats (300–400 grams) were injected s.c. in the left or right hind limb, or in the neck, with A431 cells (1×10^7 in 200 μl sterile PBS). Tumor growth was monitored every 2–3 days by calipers. One to two weeks after inoculation, the rats were ready to be used in the following in-vivo biodistribution, metabolic and PET studies. Tumor mass ranging between 2 and 3 grams were used in these experiments. Biological Stability: […] In general, control rats were injected with the radiolabeled compounds and sacrificed at several time points. […] Ether was then added and the samples were counted in a gamma-counter. Blood, homogenized liver and tumor samples were extracted and the extracted fractions were measured for activity in a gamma-counter, spotted onto TLC, and the radioactivity was detected with phosphor imaging plates.

[3] = system: A431 tumor; experiment: Positron Emission Tomography studies in tumor bearing nude rats; assay type: in vivo, rat; details: for bladder excretion (PET coronal views): FIG. 12
Protocol: WAG rnu/rnu male rats (300–400 grams) were injected s.c. in the left or right hind limb, or in the neck, with A431 cells (1×10^7 in 200 μl sterile PBS). Tumor growth was monitored every 2–3 days by calipers. One to two weeks after inoculation, the rats were ready to be used in the following in-vivo biodistribution, metabolic and PET studies. Tumor mass ranging between 2 and 3 grams were used in these experiments.
Positron Emission Tomography studies: Preliminary dynamic PET scans were performed on a Positron Corporation HZL/R scanner (intrinsic spatial resolution: in-plane 5.8 mm, axial 6.3 mm). Rats were anaesthetized with pentothal (85 mg/Kg) and placed supine on a flat polystyrene foam support with feet taped to the support, so as to minimize movements. […] The PET data were normalized for variations in detector sensitivity, and corrected for wobble, randoms, scatter and deadtime. Attenuation correction was applied using the measured transmission scan data. PET images of the Posicam system (Positron Corporation) were reconstructed by filtered back-projection using a Butterworth filter (cut-off 0.2 cycles/mm, order 10). […] These experiments were conducted with the same rats, two days after the first set of experiments.

[4] = system: A431 cells; experiment: Specific binding measurements in intact A431 cells; set-up: species or system human
Protocol: Specific Binding Measurements in Intact A431 Cells: […] After incubation, cells were harvested with a cell harvester (Brandel […], model […], Brandel, Gaithersburg, Md., USA) and were counted in a gamma-counter (1480 WizardTM 3''). The specific binding of the radiolabeled inhibitor was calculated by subtracting the radioactivity level of cells pre-incubated with the non-labeled inhibitor from the radioactivity level of cells pre-incubated with the vehicle only.

[5] = biological target: EGFR autophosphorylation in intact A431 cells (Homo sapiens, UniProt P00533); experiment: EGFR autophosphorylation inhibition rate measurements in intact A431 cells; assay type: cell-based; details: 30 nM inhibitor
EGFR autophosphorylation in intact A431 cells, sequence (P00533 25-1210): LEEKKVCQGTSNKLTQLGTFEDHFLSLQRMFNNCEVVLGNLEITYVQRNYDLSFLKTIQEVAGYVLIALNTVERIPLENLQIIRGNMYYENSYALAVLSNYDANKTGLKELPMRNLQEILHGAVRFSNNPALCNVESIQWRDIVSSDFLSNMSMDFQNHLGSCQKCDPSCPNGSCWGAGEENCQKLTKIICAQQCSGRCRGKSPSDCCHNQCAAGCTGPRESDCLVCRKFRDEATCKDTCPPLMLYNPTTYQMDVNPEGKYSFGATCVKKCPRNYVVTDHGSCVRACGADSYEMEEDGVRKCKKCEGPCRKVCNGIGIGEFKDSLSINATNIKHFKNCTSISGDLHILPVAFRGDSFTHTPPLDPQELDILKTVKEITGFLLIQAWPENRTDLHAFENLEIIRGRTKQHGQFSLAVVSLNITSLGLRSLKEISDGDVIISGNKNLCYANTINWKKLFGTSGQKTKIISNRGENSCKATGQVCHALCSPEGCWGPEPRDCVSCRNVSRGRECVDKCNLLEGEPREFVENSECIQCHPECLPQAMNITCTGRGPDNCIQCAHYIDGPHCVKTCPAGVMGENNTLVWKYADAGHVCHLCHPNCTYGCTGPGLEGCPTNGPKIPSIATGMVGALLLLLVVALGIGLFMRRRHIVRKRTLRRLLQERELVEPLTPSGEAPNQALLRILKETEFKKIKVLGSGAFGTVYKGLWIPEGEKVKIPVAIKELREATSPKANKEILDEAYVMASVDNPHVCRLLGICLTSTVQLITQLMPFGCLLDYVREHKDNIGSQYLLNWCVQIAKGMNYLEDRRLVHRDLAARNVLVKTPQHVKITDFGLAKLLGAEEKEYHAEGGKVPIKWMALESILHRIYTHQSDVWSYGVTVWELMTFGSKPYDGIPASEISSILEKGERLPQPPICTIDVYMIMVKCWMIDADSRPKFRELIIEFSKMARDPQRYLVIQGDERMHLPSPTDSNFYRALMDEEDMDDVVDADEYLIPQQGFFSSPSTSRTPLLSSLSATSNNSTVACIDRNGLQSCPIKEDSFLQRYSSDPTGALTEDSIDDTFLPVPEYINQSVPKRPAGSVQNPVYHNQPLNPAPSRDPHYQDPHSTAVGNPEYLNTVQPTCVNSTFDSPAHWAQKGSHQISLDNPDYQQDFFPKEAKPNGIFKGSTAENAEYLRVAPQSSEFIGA
Protocol: A431 cells (10^6) were seeded in 6-well plates and grown to 60–80% confluence in DMEM (high glucose) containing 10% fetal calf serum (FCS) and antibiotics at 37° C.
After the incubation, the medium was replaced with an inhibitor/FCS-free medium, the cells were kept at 37° C. for either 1 or 8 hours, stimulated thereafter with EGF and lysated as described hereinabove. The protein determination assay was then performed once with n=1 for each time point of the 1 hour post-incubation set of cells left, and with n=2 (for each time point) for the 8 hours post-incubation set of cells.
The strips were then washed (3×15 minutes) with fading solution (20% MeOH, 7% acetic acid) and dried.
For visualization of molecular weight bands, the membrane was immersed in Ponceau reagent (0.05% Ponceau, 5% acetic acid) for a few minutes, and then washed twice with TTN (10 mM Tris pH 7.4, 0.2% TWEEN 20, 170 mM NaCl) and once with water. The membrane was blocked overnight in TTN containing 5% milk (1% fat) (blocking TTN) and incubated for 90 minutes with PY20 antiphosphotyrosine antibody (Santa Cruz Biotechnology Inc., Santa Cruz, USA) diluted 1:2,000 in blocking TTN.

[6] = biological target: EGFR-TK (Homo sapiens, UniProt P00533); experiment: biochemical; details: 3 μM ATP
EGFR-TK, sequence (P00533 25-1210): as above
Protocol: All the following incubations were performed at room temperature and with constant shaking. […] The final volume for each well was 150 μl.
After removing the unbound m108, the plate was washed and PBS containing 5% milk (1% fat) was added for the blocking (25 minutes).
One aliquot of A431 cell lysate was thawed and added to the plate.
After 25 minutes, and without washing the plate, ATP/MnCl2 solution was added in each well. The final concentration was 3 μM ATP/5 mM MnCl2. In this step the temperature was kept at 26° C. and the plate was under constant shaking. The incubation with ATP/MnCl2 was for 5 minutes.
Then, to stop the phosphorylation reaction, EDTA was added (pH 8, final concentration in each well 20 mM) and after 1 minute all the plate was washed.
Afterward, polyclonal anti-phosphotyrosine serum (Sugen, Inc.) was added (dilution of antibody in TBST containing 5% milk). The incubation was for 45 minutes.

[7] = biological target: EGFR-TK autophosphorylation in intact A431 cells (Homo sapiens, UniProt P00533); experiment: cell-based
EGFR-TK autophosphorylation in intact A431 cells, sequence (P00533 25-1210): as above
Protocol: Autophosphorylation Inhibition Experiments in Intact A431 Cells:
A431 cells (10^6) were seeded in 6-well plates and grown to 60–80% confluence in DMEM (high glucose) containing 10% fetal calf serum (FCS) and antibiotics at 37° C. The cells were then exposed to serum-free medium, at 37° C., for 18 hours.
Irreversibility assay: Variable concentrations of the inhibitor, ranging from 0.05 nM to 50 nM, were added to A431 cells for 2 hours incubation. The inhibitor was diluted in vehicle/DMSO and the final concentration of DMSO was 0.05% in each well). The medium was replaced thereafter with an inhibitor/FCS-free medium and the cells were left for either 2 or 8 hours, at 37° C. During the 8 hours period, the medium was changed three more times. After the post-incubation period, the cells were stimulated with EGF (20 ng/ml) for 5 minutes and then washed with PBS. Whole-cell lysates were obtained by scraping the cells into the well with 0.4 ml of Leammli buffer (10% glycerol, 3% sodium dodecyl sulfate, 5% b-mercaptoethanol, 50 mM Tris pH 6.8) that contained 0.001% bromophenol blue, and boiling for 5 minutes.
Western blots: Identical protein amounts from each lysate sample were loaded onto polyacrylamide gel (6% or 10%), separated by electrophoresis (Hoefer Pharmacia Diotech Inc., San Francisco, USA) and transferred to nitrocellulose membrane (power supply: EPS 500/400, Amersham Pharmacia Biotech; nitrocellulose extra blotting membranes: Sartorius A G, Goettingen, Germany). A standard high molecular weight solution was loaded as a reference. For visualization of molecular weight bands, the membrane was immersed in Ponceau reagent (0.05% Ponceau, 5% acetic acid) for a few minutes, and then washed twice with TTN (10 mM Tris pH 7.4, 0.2% TWEEN 20, 170 mM NaCl) and once with water. The membrane was blocked overnight in TTN containing 5% milk (1% fat) (blocking TTN) and incubated for 90 minutes with PY20 antiphosphotyrosine antibody (Santa Cruz Biotechnology Inc., Santa Cruz, USA) diluted 1:2,000 in blocking TTN. The membrane was then washed with TTN (3×5 minutes), incubated for 90 minutes with a horseradish peroxidase-conjugated secondary antibody (Goat anti-mouse IgG H+L, Jackson ImResearch Laboratories, Inc, diluted 1:10,000 in blocking TTN), and finally washed again with TTN (3×5 minutes). The membrane was incubated in a luminol-based solution (1 minute, 0.1 M Tris pH 8.5, 250 μM luminol, 400 μM p-cumaric acid, 0.033% H2O2) and visualized using chemiluminescent detection.
Quantification of the EGFR-P (protein) bands density obtained was performed using Adobe Photoshop 5.0ME and NIH image 1.16/ppc programs.

Structure (SMILES): C=CC(=O)Nc1ccc2ncnc(Nc3cc(Cl)c(Cl)cc3F)c2c1 [carbon-11 labeled Compound 3, carbon-11 labeled N-{4-[(3,4-dichloro-6-fluorophenyl)amino]quinazoline-6-yl}acrylamide]
tumor/blood ratios ([1]; 15 minutes post administration): 0.09 % ID/gram
tumor/blood ratios ([1]; 30 minutes post administration): 0.05 % ID/gram
course of tumor uptake with time [1]: decreased with time
tracer remaining intact in blood ([2]; 15 minutes post injection): 20%
metabolites in liver and blood (TLC) ([2]; 30 minutes post injection, tumor bearing rats): detected
tracer remaining intact in blood ([2]; 45 minutes post injection): no tracer was remained

Structure (SMILES): OC[C@H]1O[C@@H](O)[C@H]([18F])[C@@H](O)[C@@H]1O [FDG, reference compound]
bladder excretion (PET coronal views) [3]: excreted in the bladder in great quantities

bladder excretion (PET coronal views) [3]: slower and minimal bladder excretion
specific binding of radiolabeled inhibitor in tumor ([3]; PET, alone versus blocked with non-labeled compound): 50%
decrease of liver activity uptake ([3]; during one hour scanning time): 25%
course of activity uptake in the tumor ([3]; during the first one hour scan): remained constant
tumor uptake ([1]; 15 minutes post-administration): 0.25 % ID/gram
tumor uptake ([1]; 30 minutes post-administration): 0.24 % ID/gram
course of tumor uptake with time [1]: remained constant
course of intact tracer in blood with time ([2]; 15 to 45 minutes post injection): no substantial reduction with time
tracer remaining intact in blood ([2]; 15 minutes post injection): 60%
metabolites (TLC) ([2]; 60 minutes post injection, tumor bearing rats): no metabolites
Structure (SMILES): CN(C)CC=CC(=O)Nc1ccc2ncnc(Nc3cc(Cl)c(Cl)cc3F)c2c1 [carbon-11 labeled Compound 4, carbon-11 labeled N-{4-[(3,4-dichloro-6-fluorophenyl)amino]quinazoline-6-yl}-4-(dimethylamino)-2-butenamide]
increase of specific binding as compared to carbon-11 labeled Compound 3 ([4]; A431 cells): 10%
specific binding to A431 cells ([4]; carbon-11 labeled tracer, non-specific binding from cells pre-incubated with non-labeled inhibitor): 78%
PET visualization of the tumor ([3]; 250 μCi via jugular vein, dynamic scan): visualized throughout a 1-hour scan
tumor uptake of tracer after pre-injection of non-labeled Compound 4 ([3]; non-labeled Compound 4 given 10 minutes before tracer, same rats 2 days later): blocked
total activity uptake in tumor when administered alone as compared with uptake after pre-injecting non-labeled compound ([3]; time activity curves of the tumor region (FIG. 10)): doubled

Structure (SMILES): C=CC(=O)Nc1ccc2ncnc(Nc3cc(Cl)c(Cl)cc3F)c2c1 [Compound 3, N-{4-[(3,4-dichloro-6-fluorophenyl)amino]quinazoline-6-yl}acrylamide]
inhibition of EGFR autophosphorylation ([5]; 9 minutes incubation time, 1 hour post-incubation (FIG. 4), compared with the 80% inhibition of FIG. 3): same effect
inhibition at 0.03 µM ([5]; A-431, 10 minutes incubation time, 8 hours post-incubation (FIG. 3)): 80%
IC50 ([6]; IC50app of an exemplary dose-response autophosphorylation inhibition curve, single exemplary curve (FIG. 1 / FIG. 5), r2 0.995): 0.051 nM
IC50 ([6]; apparent IC50 average (IC50app), EGFR-TK autophosphorylation, average of 4 independent dose-response curves (n=4), spread ±0.016): 0.042 nM
inhibition at 0.0005 µM ([7]; A-431, read-out: inhibition of EGFR autophosphorylation, 0.5 nM inhibitor, 2 h incubation, 2 hours in inhibitor/FCS-free media): ~35%
inhibition at 0.005 µM ([7]; A-431, read-out: inhibition of EGFR autophosphorylation, 5 nM inhibitor, 2 h incubation, 2 hours in inhibitor/FCS-free media): 40%
inhibition at 0.05 µM ([7]; A-431, read-out: inhibition of EGFR autophosphorylation, 50 nM inhibitor, 2 h incubation, 2 hours in inhibitor/FCS-free media): ~100%
inhibition at 0.05 µM ([7]; A-431, read-out: inhibition of EGFR autophosphorylation, 50 nM inhibitor, 2 h incubation, 8 hours post-incubation): ~97%

Reference: patent publication US7172749B2, “Radiolabeled irreversible inhibitors of epidermal growth factor receptor tyrosine kinase and their use in radioimaging and radiotherapy” (priority 2001, dated 2007)
